The numbers were not newly measured in US10881104B2, “Arthropod control composition, formulation, and method” (priority 2013, dated 2021), which cites them from elsewhere.

This series deals with D. variabilis. The conditions noted are these: unformulated; 2 h after application.

Turning to `CCCCCCCCCC(C)=O` [Formulation 2-undecanone, 2-undecanone], the repellency is 74%.
